This passage reports Bind % results from patent US20210380595A1 (ARAXES PHARMA LLC, priority 2018, published 2021).

The target in one experiment is T1, KRAS G12C 1-169, his-tagged protein, GDP-loaded (Homo sapiens, UniProt P01116, G12C).
T1 construct: KRAS G12C 1-169, his-tagged protein, GDP-loaded
Briefly: Biochemical assay: covalent modification of KRAS G12C measured by mass spectrometry (RapidFire/TOF or Q-Exactive). The following applies: tested at 32 μM. The class given is binding. The procedure: Test compounds were prepared as 10 mM stock solutions in DMSO (Fisher cat. #BP-231-100). KRAS G12C 1-169, his-tagged protein, GDP-loaded is diluted to 2 μM or 0.5 μM in buffer (20 mM Hepes, 150 mM NaCl, 1 mM MgCl2). Compounds were tested for activity as follows:
Compounds were diluted to 50× final test concentration in DMSO in 96-well storage plates. Compound stock solutions were vortexed before use and observed cwerefully for any sign of precipitation. Dilutions were as follow: • For 32 μM final compound concentration, compounds were diluted to 1600 μM (3 μL 10 mM compound stock +15.75 μL DMSO and mixed well by pipetting. • For 8 μM final compound concentration, compounds were diluted to 400 μM (2 μL 10 mM compound stock +48 μL DMSO) and mixed well by pipetting. 49 μL of the stock protein solution was added to each well of a 96-well PCR plate (Fisher cat#1423027). 1 μl of the diluted 50× compounds were added to appropriate wells in the PCR plate using 12-channel pipettor. Reactions were mixed carefully and thoroughly by pipetting up/down with a 200 μL multi-channel pipettor. The plate was sealed well with aluminum plate seal, and protein and compound were allowed to react for a desired amount of time. 5 μL of 2% formic acid (Fisher cat#A117) in de-ionized H2O was then added to each well followed by mixing with a pipette to quench the reaction. The plate was then resealed with aluminum seal and stored frozen on dry ice until analyzed as described below.
The above described assays were analyzed by mass spectrometry according to one of the following two procedures:
The MS instrument was set to positive polarity, 2 GHz resolution, and low mass (1700) mode and allowed to equilibrate for 30 minutes. The instrument was then calibrated, switched to acquisition mode and the appropriate method loaded.
After another 30 minute equilibration time, a blank batch (i.e., buffer) was run to ensure equipment is operating properly. The samples were thawed at 37° C. for 10 minutes, briefly centrifuged, and transfered to the bench top. Wells A1 and H12 were spiked with 1 μL 500 μM internal standard peptide, and the plates centrifuged at 2000×g for 5 minutes. The method was then run and masses of each individual well recorded.
The masses (for which integration data is desired) for each well were pasted into the platemap and exported from the analysis. Masses for the internal standards were exported as well. The data at 50 ppm was extracted for the +19 charge state, and identity of well A1 was assigned using the internal standard spike and integrated. Peak data was exported as a TOF list and the above steps were repeated individually, for the +20, +21, +22, +23, +24, and +25 charge states.
The masses and peak intensities of KRAS G12C protein species were measured using a Dionex RSLCnano system (Thermo Scientific) connected to a Q Exactive Plus mass spectrometer (Thermo Scientific).
20 μL of sample was loaded onto a Aeris™ 3.6 μm WIDEPORE C4 200 Å, LC Column 50×2.1 mm column maintained at 40° C. at a flow rate of 600 μL/min with 80% Solvent A (0.1% formic acid in H2O) and 20% Solvent B (0.1% formic acid in acetonitrile). The liquid chromatography conditions were 20% solvent B for 1 minute, 20% to 60% solvent B for 1.5 minutes, 60% to 90% solvent for 0.5 minute, 90% solvent B for 0.2 minute, 90% to 20% solvent B for 0.2 minute, and then equilibrated for 1.6 minute before the following sample injection. The flow rate was maintained at 600 μL/min throughout the sample analysis.
The mass spectrometer was operated in profile mode at a resolution of 17500, 5 microscans, using 50 msec max injection time and an AGC target of 1×10^6, and a full mass range from 800-1850 m/z was recorded. The intact protein mode was applied for optimal ion transfer and maximum sensitivity. The ionization method was electrospray ionization, which used a spray voltage of 4 kV, sheath gas flow set to 50 AU, auxiliary gas flow set to 10 AU and sweep gas flow set to 1 AU. […]
On to `C=CC(=O)N1CC2(CCN(c3ccc(F)c(-c4c(C)ccc5[nH]ncc45)c3C#N)CC2)C1` (atropisomer, axis not shown) [Compound I-140, (R)-6-(2-acryloyl-2,7-diazaspiro[3.5]nonan-7-yl)-3-fluoro-2-(5-methyl-1H-indazol-4-yl)benzonitrile], for which the Bind % result is “+ (+ indicates binding activity greater than 0% and up to 50%)”.
Regarding `C=CC(=O)N1CC2(CCN(c3ccc(F)c(-c4c(C)ccc5[nH]ncc45)c3C#N)CC2)C1` (atropisomer, axis not shown) [Compound I-141, (S)-6-(2-acryloyl-2,7-diazaspiro[3.5]nonan-7-yl)-3-fluoro-2-(5-methyl-1H-indazol-4-yl)benzonitrile], the Bind % entry was “+ (+ indicates binding activity greater than 0% and up to 50%)”.
Same read-out and setting: as for `C=CC(=O)N1CC2(CCN(c3cccc(-c4c(C)ccc5[nH]ncc45)c3C#N)C2)C1` [Compound I-1, 2-(2-acryloyl-2,6-diazaspiro[3.4]octan-6-yl)-6-(5-methyl-1H-indazol-4-yl)benzonitrile], the entry is “+++ (+++ indicates binding activity greater than 75%)”.
The same measure, in the same setting: as for `C=CC(=O)N1CC2(CCN(c3cccc(-c4c(C)ccc5[nH]ncc45)c3OC)C2)C1` [Compound I-2, 1-(6-(2-methoxy-3-(5-methyl-1H-indazol-4-yl)phenyl)-2,6-diazaspiro[3.4]octan-2-yl)prop-2-en-1-one], the entry is “+ (+ indicates binding activity greater than 0% and up to 50%)”; as for `C=CC(=O)N1CC2(CCN(c3cccc(-c4c(C)ccc5cnn(C)c45)c3F)C2)C1` [Compound I-3, 1-(6-(3-(1,6-dimethyl-1H-indazol-7-yl)-2-fluorophenyl)-2,6-diazaspiro[3.4]octan-2-yl)prop-2-en-1-one], “+ (+ indicates binding activity greater than 0% and up to 50%)”; as for `CC#CC(=O)N1CC2(CCN(c3cccc(-c4c(C)ccc5[nH]ncc45)c3C#N)C2)C1` [Compound I-4, 2-(2-(but-2-ynoyl)-2,6-diazaspiro[3.4]octan-6-yl)-6-(5-methyl-1H-indazol-4-yl)benzonitrile], “+ (+ indicates binding activity greater than 0% and up to 50%)”.
Still for that read-out and setting: as for `C=CC(=O)N1CC2(CCN(c3cccc(-c4c(C)ccc5cnn(C)c45)c3OC)C2)C1` [Compound I-5, 1-(6-(3-(1,6-dimethyl-1H-indazol-7-yl)-2-methoxyphenyl)-2,6-diazaspiro[3.4]octan-2-yl)prop-2-en-1-one], the entry is “++ (++ indicates binding activity from 50 to 75%)”; as for `C=CC(=O)N1CCC2(CCN(c3cccc(-c4c(O)cccc4F)c3C#N)C2)C1` (stereo not drawn) [Compound I-6, 3-(7-acryloyl-2,7-diazaspiro[4.4]nonan-2-yl)-2′-fluoro-6′-hydroxy-[1,1′-biphenyl]-2-carbonitrile], “+ (+ indicates binding activity greater than 0% and up to 50%)”; as for `C=CC(=O)N1CC2(CCN(c3cc(N4CCOCC4)cc(-c4c(C)ccc5[nH]ncc45)c3C#N)C2)C1` [Compound I-7, 2-(2-acryloyl-2,6-diazaspiro[3.4]octan-6-yl)-6-(5-methyl-1H-indazol-4-yl)-4-morpholino-benzonitrile], “+++ (+++ indicates binding activity greater than 75%)”.
As to `C=CC(=O)N1CC2(CCN(c3cccc(-c4c(C)ccc5[nH]ncc45)c3F)C2)C1` [Compound I-8, 1-(6-(2-fluoro-3-(5-methyl-1H-indazol-4-yl)phenyl)-2,6-diazaspiro[3.4]octan-2-yl)prop-2-en-1-one], the Bind % result is “+ (+ indicates binding activity greater than 0% and up to 50%)”.
Same read-out and setting: as for `C=CC(=O)N1CCC2(C1)CN(c1cccc(-c3c(C)ccc4[nH]ncc34)c1C#N)C2` [Compound I-9, 2-(6-acryloyl-2,6-diazaspiro[3.4]octan-2-yl)-6-(5-methyl-1H-indazol-4-yl)benzonitrile], the entry is “+ (+ indicates binding activity greater than 0% and up to 50%)”; as for `C=CC(=O)N1CCC2(C1)CN(c1cccc(-c3c(O)cccc3F)c1C#N)C2` [Compound I-10, 3-(6-acryloyl-2,6-diazaspiro[3.4]octan-2-yl)-2′-fluoro-6′-hydroxy-[1,1′-biphenyl]-2-carbonitrile], “+ (+ indicates binding activity greater than 0% and up to 50%)”; as for `C=CC(=O)N1CCC2(C1)CN(c1cccc(-c3c(C)ccc4cnn(C)c34)c1C#N)C2` [Compound I-11, 2-(6-acryloyl-2,6-diazaspiro[3.4]octan-2-yl)-6-(1,6-dimethyl-1H-indazol-7-yl)benzonitrile], “+ (+ indicates binding activity greater than 0% and up to 50%)”.
Still for that read-out and setting: as for `CC#CC(=O)N1CC2(CCN(c3cccc(-c4c(C)ccc5cnn(C)c45)c3C#N)C2)C1` [Compound I-12, 2-(2-(but-2-ynoyl)-2,6-diazaspiro[3.4]octan-6-yl)-6-(1,6-dimethyl-1H-indazol-7-yl)benzonitrile], the entry is “+ (+ indicates binding activity greater than 0% and up to 50%)”.
As for `C=CC(=O)N1CCC2(CCN(c3cccc(-c4c(C)ccc5cnn(C)c45)c3C#N)C2)C1` (stereo not drawn) [Compound I-13, 2-(7-acryloyl-2,7-diazaspiro[4.4]nonan-2-yl)-6-(1,6-dimethyl-1H-indazol-7-yl)benzonitrile], the Bind % entry was “+ (+ indicates binding activity greater than 0% and up to 50%)”.
`C=CC(=O)N1CC2(CCN(c3cc(OC)cc(-c4c(C)ccc5[nH]ncc45)c3C#N)C2)C1` [Compound I-14, 2-(2-acryloyl-2,6-diazaspiro[3.4]octan-6-yl)-4-methoxy-6-(5-methyl-1H-indazol-4-yl)benzonitrile]: the Bind % result was “+++ (+++ indicates binding activity greater than 75%)”.
Still for that read-out and setting: as for `C=CC(=O)N1CCC2(CC1)CN(c1cccc(-c3c(C)ccc4cnn(C)c34)c1C#N)C2` [Compound I-15, 2-(7-acryloyl-2,7-diazaspiro[3.5]nonan-2-yl)-6-(1,6-dimethyl-1H-indazol-7-yl)benzonitrile], the entry is “+ (+ indicates binding activity greater than 0% and up to 50%)”; as for `C=CC(=O)N1CC2(CCN(c3cc(N4CCOCC4)cc(-c4c(C)ccc5cnn(C)c45)c3C#N)C2)C1` [Compound I-16, 2-(2-acryloyl-2,6-diazaspiro[3.4]octan-6-yl)-6-(1,6-dimethyl-1H-indazol-7-yl)-4-morpholino-benzonitrile], “+++ (+++ indicates binding activity greater than 75%)”.

The same experiment, now with this note: tested at a concentration of 8 μM.
For the compound `C=CC(=O)N1CC2(CCN(c3ccc(F)c(-c4c(C)ccc5[nH]ncc45)c3C#N)C2)C1` (atropisomer, axis not shown) [Compound I-43, (R)-6-(2-acryloyl-2,6-diazaspiro[3.4]octan-6-yl)-3-fluoro-2-(5-methyl-1H-indazol-4-yl)benzonitrile], the Bind % result is given as “+++ (+++ indicates binding activity greater than 75%)”.
Take `C=CC(=O)N1CC2(CCN(c3ccc(F)c(-c4c(C)ccc5cnn(C)c45)c3C#N)C2)C1` (atropisomer, axis not shown) [Compound I-44, (S)-6-(2-acryloyl-2,6-diazaspiro[3.4]octan-6-yl)-2-(1,6-dimethyl-1H-indazol-7-yl)-3-fluorobenzo-nitrile]: the Bind % entry was “+++ (+++ indicates binding activity greater than 75%)”.
On the same count and under the same terms, as for `C=CC(=O)N1CC2(CCN(c3ccc(F)c(-c4c(C)ccc5cnn(C)c45)c3C#N)C2)C1` (atropisomer, axis not shown) [Compound I-45, (R)-6-(2-acryloyl-2,6-diazaspiro[3.4]octan-6-yl)-2-(1,6-dimethyl-1H-indazol-7-yl)-3-fluorobenzo-nitrile], the entry is “+ (+ indicates binding activity greater than 0% and up to 50%)”.
